Laboratory results published in patent US6436963B1 (priority 1998, dated 2002).

How the values were obtained:
Assay type in all cases: in vivo
Erysiphe graminis = assay: Powdery Mildew of Wheat (ERYSGT), protectant spray test on wheat seedlings; details: wheat (cultivar Monon), sprayed to run off at 100 ppm, inoculated after 24 hours
Puccinia recondita = assay: Brown Rust (PUCCRT), protectant spray test on wheat seedlings; details: wheat (cultivar Monon), sprayed to run off at 100 ppm, inoculated after 24 hours
Leptosphaeria nodorum = assay: Glume Blotch of Wheat (LEPTNO), protectant spray test on wheat seedlings; details: wheat (cultivar Monon), sprayed to run off at 100 ppm, inoculated after 24 hours
Phytophthora infestans = details: tomatoes (cultivar Rutgers), sprayed to run off at 100 ppm, inoculated after 24 hours

SMILES	ERYSGT control of plant disease (Erysiphe graminis)	PUCCRT control of plant disease (Puccinia recondita)	LEPTNO control of plant disease (Leptosphaeria nodorum)	PHYTIN control of plant disease (Phytophthora infestans)
CNC(=O)C(=NOC)c1ccccc1COc1ncc(C(O)c2ccc(Oc3ccccc3)cc2)cc1Cl (stereo not shown) [Example 100]	++ (++ = 75-100% control of plant disease)	++ (++ = 75-100% control of plant disease)	++ (++ = 75-100% control of plant disease)	++ (++ = 75-100% control of plant disease)
CNC(=O)C(=NOC)c1ccccc1COc1ncc(C(C)OCc2ccc(OC)cc2)cc1Cl (racemic) [Example 17]	++ (++ = 75-100% control of plant disease)	++ (++ = 75-100% control of plant disease)	++ (++ = 75-100% control of plant disease)	− (− = 0-24% control of plant disease)
CNC(=O)C(=NOC)c1ccccc1COc1ncc(C(OC(=O)COC)c2ccccc2)cc1Cl (racemic) [Example 64]	++ (++ = 75-100% control of plant disease)	++ (++ = 75-100% control of plant disease)	+ (+ = 25-74% control of plant disease)	++ (++ = 75-100% control of plant disease)
CNC(=O)C(=NOC)c1ccccc1COc1ncc(C(O)c2ccc(C(F)(F)F)cc2)cc1Cl (stereo not shown) [Example 102]	++ (++ = 75-100% control of plant disease)	++ (++ = 75-100% control of plant disease)	++ (++ = 75-100% control of plant disease)	++ (++ = 75-100% control of plant disease)
CNC(=O)C(=NOC)c1ccccc1COc1ncc(C(OC(=O)OC)c2ccccc2)cc1Cl (stereo not shown) [Example 68]	++ (++ = 75-100% control of plant disease)	++ (++ = 75-100% control of plant disease)	− (− = 0-24% control of plant disease)	++ (++ = 75-100% control of plant disease)
CNC(=O)C(=NOC)c1ccccc1COc1ncc(C(O)c2cccc(F)c2)cc1Cl (stereo not shown) [Example 93]	++ (++ = 75-100% control of plant disease)	++ (++ = 75-100% control of plant disease)	++ (++ = 75-100% control of plant disease)	++ (++ = 75-100% control of plant disease)
CNC(=O)C(=NOC)c1ccccc1COc1ncc(C(C)OCc2ccccc2OC)cc1Cl (stereo not shown) [Example 97]	++ (++ = 75-100% control of plant disease)	++ (++ = 75-100% control of plant disease)	++ (++ = 75-100% control of plant disease)	− (− = 0-24% control of plant disease)
CNC(=O)C(=NOC)c1ccccc1COc1ncc(C(OC(C)=O)c2cccc(F)c2)cc1Cl (stereo not shown) [Example 96]	++ (++ = 75-100% control of plant disease)	++ (++ = 75-100% control of plant disease)	++ (++ = 75-100% control of plant disease)	++ (++ = 75-100% control of plant disease)
CCC(O)(c1ccccc1)c1cnc(OCc2ccccc2C(=NOC)C(=O)NC)c(Cl)c1 (racemic) [Example 42]	++ (++ = 75-100% control of plant disease)	++ (++ = 75-100% control of plant disease)	++ (++ = 75-100% control of plant disease)	++ (++ = 75-100% control of plant disease)
CCCCOC(C)c1cnc(OCc2ccccc2C(=NOC)C(=O)NC)c(Cl)c1 (stereo not shown) [Example 80]	++ (++ = 75-100% control of plant disease)	++ (++ = 75-100% control of plant disease)	++ (++ = 75-100% control of plant disease)	− (− = 0-24% control of plant disease)
CNC(=O)C(=NOC)c1ccccc1COc1ncc(C(OC(C)=O)c2cccc(C)c2)cc1Cl (stereo not shown) [Example 106]	++ (++ = 75-100% control of plant disease)	++ (++ = 75-100% control of plant disease)	++ (++ = 75-100% control of plant disease)	++ (++ = 75-100% control of plant disease)
CNC(=O)C(=NOC)c1ccccc1COc1ncc(C(O)c2ccc3c(c2)OCO3)cc1Cl (racemic) [Example 58]	++ (++ = 75-100% control of plant disease)	++ (++ = 75-100% control of plant disease)	++ (++ = 75-100% control of plant disease)	++ (++ = 75-100% control of plant disease)
CNC(=O)C(=NOC)c1ccccc1COc1ncc(C(O)c2cccs2)cc1Cl (racemic) [Example 51]	++ (++ = 75-100% control of plant disease)	++ (++ = 75-100% control of plant disease)	++ (++ = 75-100% control of plant disease)	++ (++ = 75-100% control of plant disease)
CNC(=O)C(=NOC)c1ccccc1COc1ncc(C(OC(C)=O)c2ccc3c(c2)OCO3)cc1Cl (racemic) [Example 60]	++ (++ = 75-100% control of plant disease)	++ (++ = 75-100% control of plant disease)	++ (++ = 75-100% control of plant disease)	++ (++ = 75-100% control of plant disease)
CNC(=O)C(=NOC)c1ccccc1COc1ncc(C(O)c2ccccc2)cc1Cl (racemic) [Example 1]	++ (++ = 75-100% control of plant disease)	++ (++ = 75-100% control of plant disease)	++ (++ = 75-100% control of plant disease)	++ (++ = 75-100% control of plant disease)
CNC(=O)C(=NOC)c1ccccc1COc1ncc(C(O)c2cccc(C(F)(F)F)c2)cc1Cl (racemic) [Example 12]	++ (++ = 75-100% control of plant disease)	++ (++ = 75-100% control of plant disease)	++ (++ = 75-100% control of plant disease)	++ (++ = 75-100% control of plant disease)
CNC(=O)C(=NOC)c1ccccc1COc1ncc(C(OC(C)=O)c2ccccc2C)cc1Cl (racemic) [Example 61]	++ (++ = 75-100% control of plant disease)	++ (++ = 75-100% control of plant disease)	++ (++ = 75-100% control of plant disease)	++ (++ = 75-100% control of plant disease)
CNC(=O)C(=NOC)c1ccccc1COc1ncc(C(C)(OC)c2ccccc2)cc1Cl (racemic) [Example 35]	++ (++ = 75-100% control of plant disease)	++ (++ = 75-100% control of plant disease)	++ (++ = 75-100% control of plant disease)	− (− = 0-24% control of plant disease)
CNC(=O)C(=NOC)c1ccccc1COc1ncc(C(OC(C)=O)c2cccs2)cc1Cl (stereo not shown) [Example 77]	++ (++ = 75-100% control of plant disease)	++ (++ = 75-100% control of plant disease)	++ (++ = 75-100% control of plant disease)	++ (++ = 75-100% control of plant disease)
CNC(=O)C(=NOC)c1ccccc1COc1ncc(C(O)c2cccc3ccccc23)cc1Cl (stereo not shown) [Example 103]	+ (+ = 25-74% control of plant disease)	++ (++ = 75-100% control of plant disease)	++ (++ = 75-100% control of plant disease)	++ (++ = 75-100% control of plant disease)
CNC(=O)C(=NOC)c1ccccc1COc1ncc(C(O)c2ccc(F)cc2)cc1Cl (racemic) [Example 7]	++ (++ = 75-100% control of plant disease)	++ (++ = 75-100% control of plant disease)	++ (++ = 75-100% control of plant disease)	++ (++ = 75-100% control of plant disease)
CNC(=O)C(=NOC)c1ccccc1COc1ncc(C(O)c2ccccc2F)cc1Cl (racemic) [Example 65]	++ (++ = 75-100% control of plant disease)	++ (++ = 75-100% control of plant disease)	++ (++ = 75-100% control of plant disease)	++ (++ = 75-100% control of plant disease)
CNC(=O)C(=NOC)c1ccccc1COc1ncc(C(OC(C)=O)c2ccc(OC(F)(F)F)cc2)cc1Cl (stereo not shown) [Example 78]	++ (++ = 75-100% control of plant disease)	++ (++ = 75-100% control of plant disease)	++ (++ = 75-100% control of plant disease)	++ (++ = 75-100% control of plant disease)
CCCC(=O)OC(c1ccccc1)c1cnc(OCc2ccccc2C(=NOC)C(=O)NC)c(Cl)c1 (racemic) [Example 47]	++ (++ = 75-100% control of plant disease)	++ (++ = 75-100% control of plant disease)	++ (++ = 75-100% control of plant disease)	++ (++ = 75-100% control of plant disease)
CNC(=O)C(=NOC)c1ccccc1COc1ncc(C(C)O)cc1Cl (racemic) [Example 40]	+ (+ = 25-74% control of plant disease)	++ (++ = 75-100% control of plant disease)	++ (++ = 75-100% control of plant disease)	+ (+ = 25-74% control of plant disease)
